Marks after values point to notes of the source that are not given here.
Experiments:
[1] = Respiratory safety pharmacology study in awake telemeterized dogs; assay type: in vivo, beagle dogs; conditions: single oral doses of 30, 60, and 120 mg/kg, male dogs
[2] = Micronucleus study in rats by the oral route; assay type: in vivo
Description: (§1) Genotoxicity was assessed in a battery of in vitro and in vivo studies that included a bacterial reverse mutation study, a chromosome aberration study in Chinese hamster ovary (CHO) cells, and a micronucleus study in rats by the oral route. The in vitro studies were performed in the presence and absence of an exogenous metabolic activation system.

CYP1A2 = biological target: T1, CYP1A2 (Homo sapiens, UniProt P05177); test: CYP inhibition in human hepatic microsomes or recombinant isoenzymes: CYP1A2; assay type: in vitro ADME
T1 construct: host or cells: human hepatic microsomes or human recombinant isoenzymes
T1 sequence (P05177 whole entry): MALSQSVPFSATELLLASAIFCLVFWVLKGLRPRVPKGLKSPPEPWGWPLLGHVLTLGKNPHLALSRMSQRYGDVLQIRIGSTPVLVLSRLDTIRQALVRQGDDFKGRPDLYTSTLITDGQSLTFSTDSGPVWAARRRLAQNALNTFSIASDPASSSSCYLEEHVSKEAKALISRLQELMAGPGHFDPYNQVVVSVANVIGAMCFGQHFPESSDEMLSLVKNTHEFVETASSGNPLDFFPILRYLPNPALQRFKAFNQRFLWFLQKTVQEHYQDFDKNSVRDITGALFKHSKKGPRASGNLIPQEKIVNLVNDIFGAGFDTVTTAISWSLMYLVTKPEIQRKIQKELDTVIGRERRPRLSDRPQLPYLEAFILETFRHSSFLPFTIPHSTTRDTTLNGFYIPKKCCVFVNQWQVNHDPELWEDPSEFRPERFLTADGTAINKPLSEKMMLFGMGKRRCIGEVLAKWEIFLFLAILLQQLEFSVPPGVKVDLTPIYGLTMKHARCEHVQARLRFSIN
Source text: It is possible that in certain clinical trial subjects, such agents may need to be adjusted for dosing or replaced by alternative agents that are not metabolized by CYP2D6, particularly when such agents may have a low therapeutic index.

Kaposi Sarcoma lesions = test: Patients with Kaposi Sarcoma: cutaneous lesion size and quantity; assay type: in vivo, human
Description: Subjects with HIV-associated KS may receive continuous daily treatment with a Compound being administered BID for up to 48 weeks. […] Response rate of HIV-associated KS to a Compound is an indicator of efficacy.
Compound Administration: Subjects may be administered a Compound at the following dose levels: 40 mg/dose BID, 80 mg/dose BID, and 100 mg/dose BID. A Compound may be orally administered each day on a BID schedule at approximately the same times each day. Ideally, doses should be taken at ˜12-hour intervals (e.g., at ˜7:00 AM and at ˜7:00 PM). If convenient for the subject, the drug may be taken during or within ˜30 minutes after a meal; however, administration with food is not required. Subjects may continue receiving repeated 4-week cycles of a Compound indefinitely or until termination. Compound administration may be terminated because of, e.g., tumor progression or other progression of KS, or a dose-limiting toxicity.
A medical history should be done within 21 days of administration of a Compound and may be done during the treatment course with a Compound (e.g., the first day of every 4 week cycle) and following such treatment. The medical history may include the following information: • 1. Previous HIV-related and non-HIV related diagnoses. • 2. […] For subjects with <50 total skin and oral lesions, all lesions should be evaluated for changes in number and characteristics. […]

[3] = test system: Chinese hamster ovary (CHO) cells; test: Chromosome aberration study in CHO cells; assay type: cell-based; conditions: with and without exogenous metabolic activation
Description: as §1

LNCaP xenografts = test: Tumor growth inhibition in LNCaP prostate cancer xenografts; assay type: in vivo, athymic nude mice
Description: Experimental Design. The LNCaP cell line is derived from a lymph node metastasis.
Tumor size was measured by calipers at periodic intervals during the study. When the mean tumor size in a mouse exceeded 1500 mm^3, mice in that group were sacrificed and both tumor and plasma were assayed for pathologic VEGF concentration as described in Section 9.1.1.1.

HT1080 xenografts = test: BrdU labeling of tumor cells from HT1080 xenografts in vivo; set-up: species or system athymic nude mice; conditions: HT1080 xenografts, 1, 2, or 3 days of treatment
Description: Experimental Design. HT1080 cells (5×10^6 cells/mouse) were implanted subcutaneously in male athymic nude mice.
The mice were sacrificed 3 hours later, and the tumors collected. A single cell suspension was prepared from the tumor cells. The cells were permeabilized and an antibody to BrdU was used to stain cells that had entered S phase during the labeling period. The proportion of cells actively synthesizing DNA was determined by cell sorting.

[4] = test system: normal human keratinocyte; test: ATP viability assay in keratinocytes; assay type: cell-based; conditions: any concentration tested
Description: Experimental Design. Nontransformed normal human keratinocyte cell cultures were established under normoxic conditions (21% oxygen). […] At the completion of treatment, cells were assessed for viability with an ATP assay and conditioned media were evaluated for VEGF protein levels by ELISA (as described in Section 9.1.1.1).

[5] = test system: VEGF secreting cell lines; test: Cell cycle effects in several VEGF secreting human tumor cell lines (PI flow cytometry, Table 25); assay type: cell-based; conditions: all of the tested tumor types; 10 nM or 100 nM, 18 hours
Description: Experimental Design. Several VEGF secreting cell lines were assayed for cell cycle effects. […] At the completion of treatment, cells were harvested and cellular DNA content was analyzed via PI staining and flow cytometry (as described in Section 9.3.1.1).

COc1ccc(C2c3[nH]c4ccc(Cl)cc4c3CCN2C(=O)Oc2ccc(Cl)cc2)cc1 (racemic) [Compound #10]
respiratory rate, core body temperature, arterial blood gases, arterial pH, arterial bicarbonate [1]: no dose dependent or biologically significant changes
genotoxic effects [2]: no evidence of genotoxic effects
inhibition of CYP1A2 (in words) (CYP1A2): No meaningful inhibition
lesion size (in words) (Kaposi Sarcoma lesions; patients with Kaposi Sarcoma (FIG. 34)): reduced
reduction in the number of raised lesions (Kaposi Sarcoma lesions; patients with Kaposi Sarcoma labeled PR (FIG. 34)): ≥ 50%
genotoxic effects [3]: no evidence of genotoxic effects
time to tumor progression (time to reach ≧1000 mm^3) (in words) (LNCaP xenografts; 10 mg/kg M-W-F): prolonged
intratumoral VEGF concentrations adjusted for tumor size (in words) (LNCaP xenografts; 10 mg/kg M-W-F, day of sacrifice): reduced
Mean % Inhibition of Intratumoral VEGF vs Vehicle at Sacrifice (LNCaP xenografts; LNCaP xenografts in male nude mice, 10 mg/kg oral M-W-F, adjusted for tumor size): 51^d %
BrdU staining of tumor cells (fraction in S phase) (in words) (HT1080 xenografts): increased BrdU staining
toxicity (viability, ATP assay) [4]: No toxicity was observed
cell cycle delay versus inhibition of VEGF production (in words) [5]: coincident with the inhibition of VEGF production
